Measurements: paper PMC10067855, “Sialidases and fucosidases of Akkermansia muciniphila are crucial for growth on mucin and nutrient sharing with mucus-associated gut bacteria” (Nature Communications, 2023)

How the values were obtained:
AmGH181 [1] = target: T1, AmGH181 (Akkermansia muciniphila, UniProt B2ULI1); parameters: gene Amuc_1547
T1 sequence (B2ULI1 23-595): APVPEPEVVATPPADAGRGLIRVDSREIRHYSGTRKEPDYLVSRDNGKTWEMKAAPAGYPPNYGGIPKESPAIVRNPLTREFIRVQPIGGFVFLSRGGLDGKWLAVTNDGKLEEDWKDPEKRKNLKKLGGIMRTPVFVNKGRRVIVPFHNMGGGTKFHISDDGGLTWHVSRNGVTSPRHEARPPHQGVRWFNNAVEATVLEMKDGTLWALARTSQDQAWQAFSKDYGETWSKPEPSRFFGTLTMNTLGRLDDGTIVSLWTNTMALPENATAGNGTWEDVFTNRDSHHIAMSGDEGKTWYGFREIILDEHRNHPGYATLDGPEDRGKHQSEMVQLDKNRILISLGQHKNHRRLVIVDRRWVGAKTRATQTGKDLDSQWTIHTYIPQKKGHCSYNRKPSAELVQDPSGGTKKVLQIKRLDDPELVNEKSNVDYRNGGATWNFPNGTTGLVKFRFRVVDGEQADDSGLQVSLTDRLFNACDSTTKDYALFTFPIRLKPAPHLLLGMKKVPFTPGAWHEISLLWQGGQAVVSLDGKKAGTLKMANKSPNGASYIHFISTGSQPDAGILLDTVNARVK

AmGH33B = target: T2, AmGH33B (Akkermansia muciniphila, UniProt B2UN42); assay: inhibition of 4MU-Neu5Ac hydrolysis, fluorescence; format: biochemical
T2 construct: gene Amuc_1835; mature peptide lacking the signal peptide
T2 sequence (B2UN42 19-674): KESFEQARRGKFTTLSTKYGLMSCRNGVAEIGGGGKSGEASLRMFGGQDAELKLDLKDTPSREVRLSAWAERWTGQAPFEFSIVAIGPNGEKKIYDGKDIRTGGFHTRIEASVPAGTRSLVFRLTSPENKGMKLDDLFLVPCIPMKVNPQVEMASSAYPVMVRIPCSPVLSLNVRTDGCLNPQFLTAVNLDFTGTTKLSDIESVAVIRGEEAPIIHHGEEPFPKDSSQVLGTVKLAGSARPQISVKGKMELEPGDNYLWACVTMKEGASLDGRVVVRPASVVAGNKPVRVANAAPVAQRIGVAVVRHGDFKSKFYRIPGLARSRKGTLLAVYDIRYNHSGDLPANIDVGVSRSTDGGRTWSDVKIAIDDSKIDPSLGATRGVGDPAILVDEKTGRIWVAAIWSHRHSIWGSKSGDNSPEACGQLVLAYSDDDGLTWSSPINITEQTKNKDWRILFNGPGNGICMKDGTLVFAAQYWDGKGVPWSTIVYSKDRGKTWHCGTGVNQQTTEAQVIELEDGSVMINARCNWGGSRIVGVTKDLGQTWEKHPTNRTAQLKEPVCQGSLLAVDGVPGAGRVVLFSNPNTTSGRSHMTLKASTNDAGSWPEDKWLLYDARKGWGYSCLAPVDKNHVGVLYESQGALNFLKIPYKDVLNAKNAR

AmGH181 [2] = target: T1, AmGH181; assay: X-ray crystal structure; also inhibition of 4MU-Neu5Ac hydrolysis; format: biochemical; parameters: gene Amuc_1547; mature peptide lacking the signal peptide
Source text: X-ray crystal structure; also inhibition of 4MU-Neu5Ac hydrolysis on AmGH181 | three structures of AmGH181: in ligand free form, bound with the transition-state inhibitor DANA

AmGH33A = target: T3, AmGH33A (Akkermansia muciniphila, UniProt B2UPI5); assay: inhibition of 4MU-Neu5Ac hydrolysis, fluorescence; format: biochemical
T3 construct: gene Amuc_0625; mature peptide lacking the signal peptide
T3 sequence (B2UPI5 39-419): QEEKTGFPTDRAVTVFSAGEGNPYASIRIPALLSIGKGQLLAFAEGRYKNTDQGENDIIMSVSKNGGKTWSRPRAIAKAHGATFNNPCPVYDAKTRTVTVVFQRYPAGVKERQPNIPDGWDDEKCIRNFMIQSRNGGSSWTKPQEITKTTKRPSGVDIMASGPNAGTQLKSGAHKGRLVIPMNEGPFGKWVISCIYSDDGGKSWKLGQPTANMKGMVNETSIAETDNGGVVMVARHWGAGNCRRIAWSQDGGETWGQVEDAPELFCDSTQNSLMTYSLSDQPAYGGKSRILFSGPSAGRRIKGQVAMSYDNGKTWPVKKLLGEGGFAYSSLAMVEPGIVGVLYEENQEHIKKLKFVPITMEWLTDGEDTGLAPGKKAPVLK

| Compound | X-ray crystal structure (ternary with DANA) (AmGH181 [1]) | IC50 (AmGH33B) | IC50 (AmGH181 [2]) | IC50 (AmGH33A) |
| --- | --- | --- | --- | --- |
| CC(=O)N[C@H]1C(O)O[C@H](CO)[C@H](O)[C@@H]1O[C@@H]1O[C@H](CO)[C@H](O)[C@H](O)[C@H]1O (stereo partly shown) [GNB, Galacto-N-biose] | bound to both the T-antigen disaccharide (GNB) and DANA, which provides a mimic for a transition state-like substrate complex | – | – | – |
| CC(=O)N[C@H]1[C@H]([C@H](O)[C@H](O)CO)OC(C(=O)O)=C[C@@H]1O [DANA, N-Acetyl-2,3-dehydro-2-deoxyneuraminic acid] | – | < 200 µM | < 200 µM | < 200 µM |
